The source of these data is patent US12398154B2, “Azaquinazoline pan-KRas inhibitors” (Mirati Therapeutics, Inc., priority 2020, dated 2025).

The structures appear in SMILES notation. pIC50: −log10 of the molar value. Where only a bound is given, the exact number is not on record here.

One experiment has as its system pERK in HCT116 cells. Nature of the experiment: Inhibition of KRas phosphorylation of ERK (Cisbio HTRF pERK assay). The conditions noted are these: Homo sapiens, HCT-116, read-out: Inhibition (HTRF IC50) of KRas-mediated Phosphorylation of ERK, HCT116.
The next experiment has as its system pERK in H727 cells. Described as above. Particulars: Homo sapiens, NCI-H727, read-out: Inhibition (HTRF IC50) of KRas-mediated Phosphorylation of ERK, H727.
For the next experiment, the system named is pERK in PSN1 cells. Described as above. Particulars: Homo sapiens, PSN1, 3 h, read-out: Inhibition (HTRF IC50) of KRas-mediated Phosphorylation of ERK, PSN1.
The target in a further experiment is KRas G12D (Homo sapiens, UniProt P01116, G12D). In words: biochemical.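 Also: TR-FRET displacement binding assay on KRas, read after a one-hour incubation at room temperature, IC50 fitted from percent-of-control values.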
Another experiment has as its target KRas G12R (Homo sapiens, UniProt P01116, G12R). Nature of the experiment: biochemical.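 Also: TR-FRET displacement assay of compound binding to KRas, read after one hour at room temperature, potency from a four-parameter fit of percent-of-control values.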
In the next experiment the test system is pERK in MKN1 cells. Nature of the experiment: Inhibition of KRas phosphorylation of ERK (Cisbio HTRF pERK assay). The conditions noted are these: Homo sapiens, MKN-1, 3 h, read-out: Inhibition (HTRF IC50) of KRas-mediated Phosphorylation of ERK, MKN1.
In a further experiment the test system is pERK in ASPC1 cells. Described as above. Particulars: Homo sapiens, ASPC1, read-out: Inhibition (HTRF IC50) of KRas-mediated Phosphorylation of ERK, AsPC-1.
A further experiment has as its target KRas G12V (Homo sapiens, UniProt P01116, G12V). In words: biochemical.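 Also: KRas binding measured by TR-FRET displacement at room temperature, IC50 fitted from percent of control values.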
In another experiment the test system is pERK in H460 cells. In words: Inhibition of KRas phosphorylation of ERK (Cisbio HTRF pERK assay). The conditions noted are these: Homo sapiens, NCI-H460, read-out: Inhibition (HTRF IC50) of KRas-mediated Phosphorylation of ERK, H460.
The target of a further experiment is KRas WT (Homo sapiens, UniProt P01116). In words: biochemical.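 Also: binding to KRas read as TR-FRET displacement after a one-hour room-temperature incubation, IC50 derived from percent-of-control values.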
A further experiment addresses KRas G12C (Homo sapiens, UniProt P01116, G12C). In words: biochemical.
For a further experiment, the target named is T1, KRas G13D (Homo sapiens, UniProt P01116, G13D).
T1 construct: Biotinylated KRas (corresponding to amino acids 1-169, produced at Accelegan Inc.); biotin (biotinylated); purchased Accelegan Inc
In words: KRas binding assay (TR-FRET displacement).

For another experiment, the target named is KRas G12S (Homo sapiens, UniProt P01116, G12S). Nature of the experiment: biochemical.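 Also: TR-FRET displacement binding to KRas, read after one hour incubation at room temperature, IC50 from four-parameter fit of percent of control.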
The next experiment concerns the target KRas G12A (Homo sapiens, UniProt P01116, G12A). Nature of the experiment: biochemical.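 Also: binding to KRas measured by TR-FRET displacement after one hour at room temperature, IC50 from a four-parameter fit of percent-of-control values.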
The target of another experiment is T2, KRas Q61H (Homo sapiens, UniProt P01116, Q61H).
T2 construct: Biotinylated KRas (corresponding to amino acids 1-169, produced at Accelegan Inc.); biotin (biotinylated); purchased Accelegan Inc
In words: KRas binding assay (TR-FRET displacement).

Chain of KRas G12V (P01116 1-169 isoform P01116-2 G12V): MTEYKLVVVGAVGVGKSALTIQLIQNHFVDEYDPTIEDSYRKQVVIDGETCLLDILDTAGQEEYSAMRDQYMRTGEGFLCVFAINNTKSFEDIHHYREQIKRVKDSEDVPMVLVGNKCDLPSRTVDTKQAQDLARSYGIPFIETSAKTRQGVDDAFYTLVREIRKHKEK
Chain of KRas G12D (P01116 1-169 isoform P01116-2 G12D): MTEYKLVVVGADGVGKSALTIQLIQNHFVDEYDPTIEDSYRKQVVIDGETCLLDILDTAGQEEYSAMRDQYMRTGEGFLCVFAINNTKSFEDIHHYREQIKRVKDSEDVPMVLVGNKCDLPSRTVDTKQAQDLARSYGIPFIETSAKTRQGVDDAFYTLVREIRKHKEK
Chain of KRas G12R (P01116 1-169 isoform P01116-2 G12R): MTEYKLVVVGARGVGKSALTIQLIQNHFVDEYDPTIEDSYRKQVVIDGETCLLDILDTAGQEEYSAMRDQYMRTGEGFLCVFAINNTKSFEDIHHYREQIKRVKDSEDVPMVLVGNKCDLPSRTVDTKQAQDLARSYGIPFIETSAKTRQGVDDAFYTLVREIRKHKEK
Chain of KRas G12C (P01116 1-169 isoform P01116-2 G12C): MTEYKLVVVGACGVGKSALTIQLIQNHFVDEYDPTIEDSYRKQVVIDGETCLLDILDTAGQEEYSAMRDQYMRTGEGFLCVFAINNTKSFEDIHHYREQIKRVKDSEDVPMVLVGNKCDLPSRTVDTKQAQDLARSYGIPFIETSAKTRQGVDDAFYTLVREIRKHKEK
Chain of KRas WT (P01116 1-169 isoform P01116-2): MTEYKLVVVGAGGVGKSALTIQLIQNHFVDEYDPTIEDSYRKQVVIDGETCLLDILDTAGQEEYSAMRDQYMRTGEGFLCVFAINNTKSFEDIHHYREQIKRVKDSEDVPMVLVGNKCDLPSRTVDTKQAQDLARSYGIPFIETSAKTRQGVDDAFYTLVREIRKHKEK
T1 sequence (P01116 1-169 isoform P01116-2 G13D): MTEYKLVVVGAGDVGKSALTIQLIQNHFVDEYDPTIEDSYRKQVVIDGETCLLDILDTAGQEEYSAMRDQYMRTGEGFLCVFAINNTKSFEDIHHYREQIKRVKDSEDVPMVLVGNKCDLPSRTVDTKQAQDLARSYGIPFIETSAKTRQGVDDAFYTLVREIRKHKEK
Chain of KRas G12S (P01116 1-169 isoform P01116-2 G12S): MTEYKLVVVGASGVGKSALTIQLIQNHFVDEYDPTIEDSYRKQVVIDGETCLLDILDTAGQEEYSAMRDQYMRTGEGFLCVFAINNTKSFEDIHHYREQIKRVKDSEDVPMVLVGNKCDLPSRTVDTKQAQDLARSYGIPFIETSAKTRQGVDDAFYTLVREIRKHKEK
Chain of KRas G12A (P01116 1-169 isoform P01116-2 G12A): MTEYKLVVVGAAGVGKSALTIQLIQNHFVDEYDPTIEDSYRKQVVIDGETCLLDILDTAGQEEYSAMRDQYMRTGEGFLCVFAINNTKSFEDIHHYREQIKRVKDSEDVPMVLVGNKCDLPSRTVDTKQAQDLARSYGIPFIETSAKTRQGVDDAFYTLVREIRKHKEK
T2 sequence (P01116 1-169 isoform P01116-2 Q61H): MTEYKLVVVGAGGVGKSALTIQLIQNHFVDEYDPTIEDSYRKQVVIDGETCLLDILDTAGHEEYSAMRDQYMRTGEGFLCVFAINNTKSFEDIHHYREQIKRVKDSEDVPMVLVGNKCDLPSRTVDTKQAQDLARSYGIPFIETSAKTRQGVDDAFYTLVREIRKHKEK

As to `CCc1c(F)ccc2cc(O)cc(-c3ncc4c(N5CCCCC(O)C5)nc(OC[C@@]56CCCN5C[C@H](F)C6)nc4c3F)c12` (stereo partly drawn) [Example 347, 1-(7-(8-ethyl-7-fluoro-3-hydroxynaphthalen-1-yl)-8-fluoro-2-(((2R,7aS)-2-fluorohexahydro-1H-pyrrolizin-7a-yl)methoxy)pyrido[4,3-d]pyrimidin-4-yl)azepan-3-ol], the pIC50 was 6.71 in the experiment on pERK in HCT116 cells; 7.14 in the experiment on pERK in H727 cells; 5.35 in the experiment with pERK in PSN1 cells; 8.52 on KRas G12D; 8.52 on KRas G12R; 7.01 in the experiment with pERK in MKN1 cells. The pIC50 in the experiment with pERK in ASPC1 cells is 6.93; on KRas G12V it was 8.52; with pERK in H460 cells, 6.90.
As for `CCc1c(F)ccc2cc(O)cc(-c3ncc4c(NCC5CNS(=O)(=O)N5)nc(OC[C@@]56CCCN5C[C@H](F)C6)nc4c3F)c12` (stereo partly drawn) [Example 494, 3-(((7-(8-ethyl-7-fluoro-3-hydroxynaphthalen-1-yl)-8-fluoro-2-(((2R,7aS)-2-fluorohexahydro-1H-pyrrolizin-7a-yl)methoxy)pyrido[4,3-d]pyrimidin-4-yl)amino)methyl)-1,2,5-thiadiazolidine 1,1-dioxide], the pIC50 in the experiment on pERK in HCT116 cells was 5.66; with pERK in H727 cells, 6.10; in the experiment with pERK in PSN1 cells, no more than 5.00; at KRas G12D it was 8.52; at KRas G12R, no less than 8.70; with pERK in MKN1 cells, 6.87. The pIC50 in the experiment with pERK in ASPC1 cells is 6.45; at KRas G12V, no less than 8.70; in the experiment on pERK in H460 cells, 6.01.
Turning to `CCc1c(F)ccc2cc(O)cc(-c3ncc4c(N5CCCC6(C5)CS(=O)(=O)C6)nc(OC[C@@]56CCCN5C[C@H](F)C6)nc4c3F)c12` [Example 481, 6-(7-(8-ethyl-7-fluoro-3-hydroxynaphthalen-1-yl)-8-fluoro-2-(((2R,7aS)-2-fluorohexahydro-1H-pyrrolizin-7a-yl)methoxy)pyrido[4,3-d]pyrimidin-4-yl)-2-thia-6-azaspiro[3.5]nonane 2,2-dioxide], the pIC50 with pERK in HCT116 cells is 5.50; in the experiment with pERK in H727 cells, 6.19; in the experiment on pERK in PSN1 cells, 5.27; against KRas G12D, 8.40; at KRas G12R, 8.15; with pERK in MKN1 cells it was 7.31. Besides, the pIC50 was 6.41 in the experiment with pERK in ASPC1 cells, 8.40 on KRas G12V and 6.08 in the experiment on pERK in H460 cells.
In the case of `CCc1c(F)ccc2cc(O)cc(-c3ncc4c(N5CCCn6nc(C(=O)NCCO)cc6C5)nc(OC[C@@]56CCCN5C[C@H](F)C6)nc4c3F)c12` [Example 506, 5-(7-(8-ethyl-7-fluoro-3-hydroxynaphthalen-1-yl)-8-fluoro-2-(((2R,7aS)-2-fluorotetrahydro-1H-pyrrolizin-7a(5H)-yl)methoxy)pyrido[4,3-d]pyrimidin-4-yl)-N-(2-hydroxyethyl)-5,6,7,8-tetrahydro-4H-pyrazolo[1,5-a][1,4]diazepine-2-carboxamide], the pIC50 is no more than 5.00 with pERK in HCT116 cells; 5.65 in the experiment on pERK in H727 cells; no more than 5.00 with pERK in PSN1 cells; no less than 8.70 on KRas G12D; no less than 8.70 at KRas G12R; 6.15 in the experiment with pERK in MKN1 cells. Besides, the pIC50 is 6.52 in the experiment with pERK in ASPC1 cells, no less than 8.70 on KRas G12V and 5.05 in the experiment on pERK in H460 cells.
Consider `CCc1c(F)ccc2cc(O)cc(-c3ncc4c(N5CCCc6nn(C(=O)NC(C)C)cc6C5)nc(OC[C@@]56CCCN5C[C@H](F)C6)nc4c3F)c12` [Example 479, 5-(7-(8-ethyl-7-fluoro-3-hydroxynaphthalen-1-yl)-8-fluoro-2-(((2R,7aS)-2-fluorohexahydro-1H-pyrrolizin-7a-yl)methoxy)pyrido[4,3-d]pyrimidin-4-yl)-N-isopropyl-5,6,7,8-tetrahydropyrazolo[4,3-c]azepine-2(4H)-carboxamide], for which the pIC50 is 6.94 in the experiment on pERK in H727 cells; no more than 5.00 in the experiment on pERK in PSN1 cells; 8.30 on KRas G12D; 7.92 at KRas G12R; 6.48 in the experiment on pERK in MKN1 cells; 6.69 in the experiment on pERK in ASPC1 cells. In addition, the pIC50 against KRas G12V is 8.40; with pERK in H460 cells it was 6.01.
Consider `CCc1c(F)ccc2cc(O)cc(-c3ncc4c(NCc5cc(C(=O)N(C)C)nn5C)nc(OC[C@@]56CCCN5C[C@H](F)C6)nc4c3F)c12` [Example 483, 5-(((7-(8-ethyl-7-fluoro-3-hydroxynaphthalen-1-yl)-8-fluoro-2-(((2R,7aS)-2-fluorotetrahydro-1H-pyrrolizin-7a(5H)-yl)methoxy)pyrido[4,3-d]pyrimidin-4-yl)amino)methyl)-N,N,1-trimethyl-1H-pyrazole-3-carboxamide], for which the negative logarithm of the IC50 (pIC50) in the experiment with pERK in H727 cells was 6.47; in the experiment with pERK in PSN1 cells, no more than 5.00; against KRas G12D it was no less than 8.70; against KRas G12R it was no less than 8.70; in the experiment on pERK in MKN1 cells it was 7.08; with pERK in ASPC1 cells, 6.05. Also, the pIC50 at KRas G12V was no less than 8.70; with pERK in H460 cells, 5.80.
Consider `O=C1C[C@]2(CCCN(c3nc(OC[C@@]45CCCN4C[C@H](F)C5)nc4c(F)c(-c5cc(O)cc6ccc(F)c(Cl)c56)ncc34)C2)N1` [Example 416, (S)-6-(7-(8-chloro-7-fluoro-3-hydroxynaphthalen-1-yl)-8-fluoro-2-(((2R,7aS)-2-fluorohexahydro-1H-pyrrolizin-7a-yl)methoxy)pyrido[4,3-d]pyrimidin-4-yl)-1,6-diazaspiro[3.5]nonan-2-one], for which the pIC50 was 5.66 in the experiment on pERK in HCT116 cells; 7.08 with pERK in H727 cells; 5.88 in the experiment on pERK in PSN1 cells; no less than 8.70 against KRas G12D; no less than 8.70 at KRas G12R; 8.52 in the experiment on pERK in MKN1 cells. The pIC50 is 6.85 with pERK in ASPC1 cells, no less than 8.70 against KRas G12V and 6.55 in the experiment on pERK in H460 cells.
For `Oc1cc(-c2ncc3c(N4CC5CC(O)CC4C5)nc(OC[C@@]45CCCN4C[C@H](F)C5)nc3c2F)c2c(Cl)c(F)ccc2c1` (stereo partly drawn) [Example 422, 6-(7-(8-chloro-7-fluoro-3-hydroxynaphthalen-1-yl)-8-fluoro-2-(((2R,7aS)-2-fluorohexahydro-1H-pyrrolizin-7a-yl)methoxy)pyrido[4,3-d]pyrimidin-4-yl)-6-azabicyclo[3.2.1]octan-3-ol], the pIC50 in the experiment with pERK in HCT116 cells was 6.27; in the experiment on pERK in H727 cells, 6.95; with pERK in PSN1 cells, 5.74; at KRas G12D it was 8.15; at KRas G12R, 8.30; with pERK in MKN1 cells it was 7.59. In addition, the results for the pIC50 in the experiment with pERK in ASPC1 cells, at KRas G12V and in the experiment on pERK in H460 cells were 6.37, no less than 8.70 and 6.52, respectively.
For the molecule `O=S1(=O)NCC2(CCCN(c3nc(OC[C@@]45CCCN4C[C@H](F)C5)nc4c(F)c(-c5cc(O)cc6ccc(F)c(Cl)c56)ncc34)C2)N1` (stereo partly drawn) [Example 417, 7-(7-(8-chloro-7-fluoro-3-hydroxynaphthalen-1-yl)-8-fluoro-2-(((2R,7aS)-2-fluorohexahydro-1H-pyrrolizin-7a-yl)methoxy)pyrido[4,3-d]pyrimidin-4-yl)-2-thia-1,3,7-triazaspiro[4.5]decan 2,2-dioxide], the pIC50 was no less than 8.70 against KRas WT; 7.10 in the experiment with pERK in HCT116 cells; 7.24 with pERK in H727 cells; 6.96 with pERK in PSN1 cells; no less than 8.70 against KRas G12D; no less than 8.70 on KRas G12R. Also, the negative logarithm of the IC50 (pIC50) with pERK in MKN1 cells is 7.70; in the experiment with pERK in ASPC1 cells, 6.74; against KRas G12V, no less than 8.70; on KRas G12C it was no less than 8.70; with pERK in H460 cells, 7.20.
On to `O[C@@H]1C[C@H](O)CN(c2nc(OCC34CCCN3CCC4)nc3c(F)c(-c4cccc5cccc(F)c45)ncc23)C1` [Example 89, (3S,5R)-1-(8-fluoro-7-(8-fluoronaphthalen-1-yl)-2-((hexahydro-l H-pyrrolizin-7a-yl)methoxy)pyrido[4,3-d]pyrimidin-4-yl)piperidine-3,5-diol], for which the pIC50 against KRas WT was 5.85; against KRas G12S, 5.81; at KRas G12D it was 5.64; on KRas G12R, 5.59; against KRas G12A it was 5.90; against KRas G12V it was 5.99. At KRas G12C, this molecule showed a pIC50 of 5.97. Further, the IC50 was found to be 1810 nM on KRas G13D and 3270 nM on KRas Q61H.
